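Test compounds were applied to cells in 96-well plates for 48 hours at 5 doses. At the GI50, growth is halved. TGI denotes the concentration required for complete inhibition of growth.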
Legend:
Test in all cases: growth of human tumour cells (NCI), 48 h
NCI/ADR-RES ovarian = tested on: NCI/ADR-RES ovarian
HOP-62 NSCLC = tested on: HOP-62 NSCLC
HL-60(TB) leukemia = tested on: HL-60(TB) leukemia
OVCAR-8 ovarian = tested on: OVCAR-8 ovarian
SW-620 colon = tested on: SW-620 colon
HCC-2998 colon = tested on: HCC-2998 colon
SF-539 CNS = tested on: SF-539 CNS
SK-MEL-28 melanoma = tested on: SK-MEL-28 melanoma
BT-549 breast = tested on: BT-549 breast
SNB-75 CNS = tested on: SNB-75 CNS
786-0 renal = tested on: 786-0 renal
KM12 colon = tested on: KM12 colon
A498 renal = tested on: A498 renal
MOLT-4 leukemia = tested on: MOLT-4 leukemia
K-562 leukemia = tested on: K-562 leukemia
HCT-116 colon = tested on: HCT-116 colon
HCT-15 colon = tested on: HCT-15 colon
U251 CNS = tested on: U251 CNS
UACC-257 melanoma = tested on: UACC-257 melanoma
M14 melanoma = tested on: M14 melanoma
MCF7 breast = tested on: MCF7 breast
DU-145 prostate = tested on: DU-145 prostate
SK-MEL-5 melanoma = tested on: SK-MEL-5 melanoma
OVCAR-4 ovarian = tested on: OVCAR-4 ovarian
OVCAR-3 ovarian = tested on: OVCAR-3 ovarian
PC-3 prostate = tested on: PC-3 prostate
SF-295 CNS = tested on: SF-295 CNS
ACHN renal = tested on: ACHN renal
CAKI-1 renal = tested on: CAKI-1 renal
NCI-H522 lung = tested on: NCI-H522 lung
HS 578T breast = tested on: HS 578T breast
NCI-H23 lung = tested on: NCI-H23 lung
SK-MEL-2 melanoma = tested on: SK-MEL-2 melanoma
COLO 205 colon = tested on: COLO 205 colon
LOX IMVI melanoma = tested on: LOX IMVI melanoma
RXF 393 renal = tested on: RXF 393 renal
OVCAR-5 ovarian = tested on: OVCAR-5 ovarian
HOP-92 NSCLC = tested on: HOP-92 NSCLC
MDA-MB-231 breast = tested on: MDA-MB-231 breast
MALME-3M melanoma = tested on: MALME-3M melanoma
TK-10 renal = tested on: TK-10 renal
SN12C renal = tested on: SN12C renal
UO-31 renal = tested on: UO-31 renal
CCRF-CEM leukemia = tested on: CCRF-CEM leukemia
A549 NSCLC = tested on: A549 NSCLC
SNB-19 CNS = tested on: SNB-19 CNS
T-47D breast = tested on: T-47D breast
SF-268 CNS = tested on: SF-268 CNS
SK-OV-3 ovarian = tested on: SK-OV-3 ovarian
HT29 colon = tested on: HT29 colon
NCI-H226 lung = tested on: NCI-H226 lung
IGROV1 ovarian = tested on: IGROV1 ovarian
MDA-MB-435 = tested on: MDA-MB-435
NCI-H460 lung = tested on: NCI-H460 lung
UACC-62 melanoma = tested on: UACC-62 melanoma
EKVX NSCLC = tested on: EKVX NSCLC
RPMI-8226 leukemia = tested on: RPMI-8226 leukemia

In the case of `O=C(COc1cccc(/C=C2\CSc3ccc(Cl)cc3C2=O)c1)c1ccc(Cl)cc1`, the GI50 (NCI/ADR-RES ovarian) is reported as 11.3 µM, the TGI (NCI/ADR-RES ovarian) is reported as 31.4 µM and the GI50 (HOP-62 NSCLC) is reported as 22.1 µM. It also gave a TGI (HOP-62 NSCLC) of 72.7 µM, a GI50 (HL-60(TB) leukemia) of 2.69 µM and a TGI (HL-60(TB) leukemia) of 6.87 µM. For the same compound, the GI50 (OVCAR-8 ovarian) was 5.1 µM, the TGI (OVCAR-8 ovarian) was greater than 100 µM and the GI50 (SW-620 colon) was 1.67 µM. For the same compound, the TGI (SW-620 colon) was 3.09 µM, the GI50 (HCC-2998 colon) was 10.7 µM and the TGI (HCC-2998 colon) was 22.6 µM. The GI50 (SF-539 CNS) was 16.8 µM, the TGI (SF-539 CNS) was 31.2 µM and the GI50 (SK-MEL-28 melanoma) was 15.6 µM. It also gave a TGI (SK-MEL-28 melanoma) of 30.4 µM, a GI50 (BT-549 breast) of 15 µM and a TGI (BT-549 breast) of 28.8 µM. The GI50 (SNB-75 CNS) was 14 µM, the TGI (SNB-75 CNS) was 37.8 µM and the GI50 (786-0 renal) was 14.5 µM. It also gave a TGI (786-0 renal) of 29.5 µM, a GI50 (KM12 colon) of 1.76 µM and a TGI (KM12 colon) of 4.13 µM. It also gave a GI50 (A498 renal) of 44.6 µM, a TGI (A498 renal) greater than 100 µM and a GI50 (MOLT-4 leukemia) of 1.84 µM. The TGI (MOLT-4 leukemia) was 4.46 µM, the GI50 (K-562 leukemia) was 1.83 µM and the TGI (K-562 leukemia) was 4.53 µM. The GI50 (HCT-116 colon) was 1.5 µM, the TGI (HCT-116 colon) was 2.83 µM and the GI50 (HCT-15 colon) was 1.8 µM. It also gave a TGI (HCT-15 colon) of 3.9 µM, a GI50 (U251 CNS) of 2.32 µM and a TGI (U251 CNS) of 5.44 µM. For the same compound, the GI50 (UACC-257 melanoma) was 13.4 µM, the TGI (UACC-257 melanoma) was 30.8 µM and the GI50 (M14 melanoma) was 12.4 µM. The TGI (M14 melanoma) was 28.2 µM, the GI50 (MCF7 breast) was 2.12 µM and the TGI (MCF7 breast) was 10.4 µM. It also gave a GI50 (DU-145 prostate) of 13.6 µM, a TGI (DU-145 prostate) of 27.9 µM and a GI50 (SK-MEL-5 melanoma) of 5.33 µM. It also gave a TGI (SK-MEL-5 melanoma) of 19.6 µM, a GI50 (OVCAR-4 ovarian) of 9.25 µM and a TGI (OVCAR-4 ovarian) of 23.1 µM. It also gave a GI50 (OVCAR-3 ovarian) of 3.8 µM, a TGI (OVCAR-3 ovarian) of 13.6 µM and a GI50 (PC-3 prostate) of 3.35 µM. It also gave a TGI (PC-3 prostate) of 11.4 µM, a GI50 (SF-295 CNS) of 4.48 µM and a TGI (SF-295 CNS) of 18.7 µM. For the same compound, the GI50 (ACHN renal) was 12.5 µM, the TGI (ACHN renal) was 25 µM and the GI50 (CAKI-1 renal) was 12.2 µM. For the same compound, the TGI (CAKI-1 renal) was 34.1 µM, the GI50 (NCI-H522 lung) was 1.74 µM and the TGI (NCI-H522 lung) was 4.19 µM. The GI50 (HS 578T breast) was 2.46 µM, the TGI (HS 578T breast) was 6.91 µM and the GI50 (NCI-H23 lung) was 12.9 µM. For the same compound, the TGI (NCI-H23 lung) was 42.5 µM, the GI50 (SK-MEL-2 melanoma) was 11.2 µM and the TGI (SK-MEL-2 melanoma) was 24.5 µM. It also gave a GI50 (COLO 205 colon) of 5.32 µM, a TGI (COLO 205 colon) of 20.2 µM and a GI50 (LOX IMVI melanoma) of 1.63 µM. The TGI (LOX IMVI melanoma) was 3.02 µM, the GI50 (RXF 393 renal) was 14.1 µM and the TGI (RXF 393 renal) was 34.3 µM. The GI50 (OVCAR-5 ovarian) was 12.5 µM, the TGI (OVCAR-5 ovarian) was 29.8 µM and the GI50 (HOP-92 NSCLC) was 0.666 µM. It also gave a TGI (HOP-92 NSCLC) of 9.8 µM, a GI50 (MDA-MB-231 breast) of 2.93 µM and a TGI (MDA-MB-231 breast) of 16.5 µM. The GI50 (MALME-3M melanoma) was 10.6 µM, the TGI (MALME-3M melanoma) was 23.9 µM and the GI50 (TK-10 renal) was 29 µM. It also gave a TGI (TK-10 renal) of 79.9 µM, a GI50 (SN12C renal) of 8.89 µM and a TGI (SN12C renal) of 22.4 µM. The GI50 (UO-31 renal) was 12 µM, the TGI (UO-31 renal) was 27.2 µM and the GI50 (CCRF-CEM leukemia) was 1.66 µM. The TGI (CCRF-CEM leukemia) was 4.22 µM, the GI50 (A549 NSCLC) was 77.6 µM and the TGI (A549 NSCLC) was greater than 100 µM. It also gave a GI50 (SNB-19 CNS) of 6.57 µM, a TGI (SNB-19 CNS) of 20.8 µM and a GI50 (T-47D breast) of 0.993 µM. It also gave a TGI (T-47D breast) of 18.4 µM, a GI50 (SF-268 CNS) of 13.6 µM and a TGI (SF-268 CNS) of 30 µM. For the same compound, the GI50 (SK-OV-3 ovarian) was 20.4 µM, the TGI (SK-OV-3 ovarian) was 97.5 µM and the GI50 (HT29 colon) was 2.08 µM. It also gave a TGI (HT29 colon) of 4.18 µM, a GI50 (NCI-H226 lung) of 13.4 µM and a TGI (NCI-H226 lung) of 44.4 µM. It also gave a GI50 (IGROV1 ovarian) of 3.29 µM, a TGI (IGROV1 ovarian) of 20.2 µM and a GI50 (MDA-MB-435) of 2.29 µM. For the same compound, the TGI (MDA-MB-435) was 8.09 µM, the GI50 (NCI-H460 lung) was 23.1 µM and the TGI (NCI-H460 lung) was greater than 100 µM. For the same compound, the GI50 (UACC-62 melanoma) was 9.04 µM, the TGI (UACC-62 melanoma) was 22.5 µM and the GI50 (EKVX NSCLC) was 10.6 µM. It also gave a TGI (EKVX NSCLC) of 38 µM.

Compound `COc1cc2cc(C(=O)N3CC(CCl)c4ccc([N+](=O)[O-])cc43)[nH]c2c(OC)c1OC` (stereo unspecified) has a TGI (NCI/ADR-RES ovarian) greater than 100 µM, a TGI (HOP-62 NSCLC) greater than 100 µM and a TGI (HL-60(TB) leukemia) greater than 100 µM. It also gave a TGI (OVCAR-8 ovarian) greater than 100 µM, a TGI (SW-620 colon) greater than 100 µM and a TGI (HCC-2998 colon) greater than 100 µM. The TGI (SF-539 CNS) was greater than 100 µM, the TGI (SK-MEL-28 melanoma) was greater than 100 µM and the TGI (BT-549 breast) was greater than 100 µM. For the same compound, the TGI (SNB-75 CNS) was greater than 100 µM, the TGI (786-0 renal) was greater than 100 µM and the TGI (KM12 colon) was greater than 100 µM. For the same compound, the TGI (A498 renal) was greater than 100 µM, the TGI (MOLT-4 leukemia) was greater than 100 µM and the TGI (K-562 leukemia) was greater than 100 µM. It also gave a TGI (HCT-116 colon) greater than 100 µM, a TGI (HCT-15 colon) greater than 100 µM and a TGI (U251 CNS) greater than 100 µM. For the same compound, the TGI (UACC-257 melanoma) was greater than 100 µM, the TGI (M14 melanoma) was greater than 100 µM and the TGI (MCF7 breast) was greater than 100 µM. The TGI (DU-145 prostate) was greater than 100 µM, the TGI (SK-MEL-5 melanoma) was greater than 100 µM and the TGI (OVCAR-4 ovarian) was greater than 100 µM. For the same compound, the TGI (OVCAR-3 ovarian) was greater than 100 µM, the TGI (PC-3 prostate) was greater than 100 µM and the TGI (SF-295 CNS) was greater than 100 µM. The TGI (ACHN renal) was greater than 100 µM, the TGI (CAKI-1 renal) was greater than 100 µM and the TGI (NCI-H522 lung) was greater than 100 µM. For the same compound, the TGI (HS 578T breast) was greater than 100 µM, the TGI (NCI-H23 lung) was greater than 100 µM and the TGI (SK-MEL-2 melanoma) was greater than 100 µM. For the same compound, the TGI (COLO 205 colon) was greater than 100 µM, the TGI (LOX IMVI melanoma) was greater than 100 µM and the TGI (RXF 393 renal) was greater than 100 µM. For the same compound, the TGI (OVCAR-5 ovarian) was greater than 100 µM, the TGI (HOP-92 NSCLC) was greater than 100 µM and the TGI (MDA-MB-231 breast) was greater than 100 µM. It also gave a TGI (MALME-3M melanoma) greater than 100 µM, a TGI (TK-10 renal) greater than 100 µM and a TGI (SN12C renal) greater than 100 µM. It also gave a TGI (UO-31 renal) greater than 100 µM, a TGI (CCRF-CEM leukemia) greater than 100 µM and a TGI (A549 NSCLC) greater than 100 µM. It also gave a TGI (SNB-19 CNS) greater than 100 µM, a TGI (T-47D breast) greater than 100 µM and a TGI (SF-268 CNS) greater than 100 µM. For the same compound, the TGI (HT29 colon) was 36.7 µM, the TGI (RPMI-8226 leukemia) was greater than 100 µM and the TGI (IGROV1 ovarian) was greater than 100 µM. The TGI (MDA-MB-435) was greater than 100 µM, the TGI (UACC-62 melanoma) was greater than 100 µM and the TGI (EKVX NSCLC) was 67.2 µM.
